# Assay results taken from ChEMBL document CHEMBL6083285 (J Med Chem, 2024).
# Tested on: not listed separately
# Assay: Protein binding in mouse plasma assessed as unbound fraction at 5 uM incubated for 4 hrs by UPLC-MS analysis
# Format: ADME, cell-free
# Conditions: not given
row,"fraction unbound at 4 h, 5 µM",SMILES
1,0.017,COc1cc(-c2cc(F)cc(C(C)C)c2CC(=O)NS(=O)(=O)c2cnn(C3CC3)c2)ccn1
2,0.086,CC(C)c1cc(F)cc2c1CC(=O)NS(=O)(=O)c1cnn(c1)C(C)(C)COc1cc-2ccn1

# Tested on: not listed separately
# Assay: AUC (0 to infinity) in male Sprague-Dawley rat at 1 mg/kg, iv measured after 24 hrs by LC-MS analysis
# Format: ADME, organism-based
# Conditions: in vivo
row,AUC(0-inf) [ng·h/mL],SMILES
1,1510,COc1cc(-c2cc(F)cc(C(C)C)c2CC(=O)NS(=O)(=O)c2cnn(C3CC3)c2)ccn1
2,4900,CC(C)c1cc(F)cc2c1CC(=O)NS(=O)(=O)c1cnn(c1)C(C)(C)COc1cc-2ccn1

# Tested on: MDR1
# Assay: Permeability across apical to basolateral side in pig LLC-PK1 cells transfected with MDR1
# Format: ADME, cell-based, Sus scrofa
# Conditions: read-out: permeability
row,Papp A→B [×10⁻⁶ cm/s],SMILES
1,0.17,COc1cc(-c2cc(F)cc(C(C)C)c2CC(=O)NS(=O)(=O)c2cnn(C3CC3)c2)ccn1
2,0.39,CC(C)c1cc(F)cc2c1CC(=O)NS(=O)(=O)c1cnn(c1)C(C)(C)COc1cc-2ccn1

# Species on record: Homo sapiens
# Assay: Selectivity ratio of IC50 for inhibition of NLRP3 inflammasome activation in LPS-stimulated human whole blood assessed as reduction in IL-1beta release to IC50 for inhibition of NLRP3 inflammasome activation mediated pyroptosis in LPS-stimulated human THP-1 cells
# Conditions: not given
row,Ratio IC50,SMILES
1,16,CC(C)n1ccc(S(=O)(=O)NC(=O)Nc2c(-c3ccnc(Oc4ccccc4)c3)ccc3c2CCC3)n1
2,16,CC(C)n1ccc(S(=O)(=O)NC(=O)Nc2c(-c3ccnc(OC4CCOCC4)c3)ccc3c2CCC3)n1

# Tested on: not listed separately
# Assay: Metabolic stability in pooled rat liver microsomes assessed as intrinsic clearance at 1 uM measured upto 45 mins in presence of NADPH by UPLC-MS/MS analysis
# Format: ADME, Microsome
# Conditions: read-out: CLH
row,microsomal CLint at 1 µM [µL/min/mg],SMILES
1,< 15.4,COc1cc(-c2cc(F)cc(C(C)C)c2CC(=O)NS(=O)(=O)c2cnn(C3CC3)c2)ccn1
2,< 15.4,CC(C)c1cc(F)cc2c1CC(=O)NS(=O)(=O)c1cnn(c1)C(C)(C)COc1cc-2ccn1

# Tested on: BCRP
# Assay: Permeability in MDCK-II-BCRP cells at 5 uM incubated for 2 hrs by LC-MS/MS analysis
# Format: ADME, cell-based, Canis lupus familiaris
# Conditions: dog, read-out: permeability
row,"Papp at 2 h, 5 µM [×10⁻⁶ cm/s]",SMILES
1,5.3,COc1cc(-c2cc(F)cc(C(C)C)c2CC(=O)NS(=O)(=O)c2cnn(C3CC3)c2)ccn1
2,10.9,CC(C)c1cc(F)cc2c1CC(=O)NS(=O)(=O)c1cnn(c1)C(C)(C)COc1cc-2ccn1

# Tested on: not listed separately
# Assay: Metabolic stability in pooled human liver microsomes assessed as intrinsic clearance at 1 uM measured upto 45 mins in presence of NADPH by UPLC-MS/MS analysis
# Format: ADME, Microsome
# Conditions: read-out: CLH
row,microsomal CLint at 1 µM [µL/min/mg],SMILES
1,45,COc1cc(-c2ccc3c(c2NC(=O)NS(=O)(=O)c2cnn(C(C)C)c2)CCC3)ccn1
2,12,COc1cc(-c2ccc3c(c2NC(=O)NS(=O)(=O)c2ccn(C(C)C)n2)CCC3)ccn1

# Tested on: MDR1
# Assay: Efflux ratio of permeability in MDCKII-MDR1 cells at 5 uM incubated for 2 hrs by LC-MS/MS analysis
# Format: ADME, cell-based, Canis lupus familiaris
# Conditions: dog, MDCK-MDR1
row,"efflux ratio at 2 h, 5 µM",SMILES
1,21,COc1cc(-c2cc(F)cc(C(C)C)c2CC(=O)NS(=O)(=O)c2cnn(C3CC3)c2)ccn1
2,18,CC(C)c1cc(F)cc2c1CC(=O)NS(=O)(=O)c1cnn(c1)C(C)(C)COc1cc-2ccn1

# Tested on: not listed separately
# Assay: Protein binding in rat plasma assessed as unbound fraction at 5 uM incubated for 4 hrs by UPLC-MS analysis
# Format: ADME, cell-free
# Conditions: not given
row,"fraction unbound at 4 h, 5 µM",SMILES
1,0.019,COc1cc(-c2cc(F)cc(C(C)C)c2CC(=O)NS(=O)(=O)c2cnn(C3CC3)c2)ccn1
2,0.036,CC(C)c1cc(F)cc2c1CC(=O)NS(=O)(=O)c1cnn(c1)C(C)(C)COc1cc-2ccn1

# Tested on: MDR1
# Assay: Efflux ratio of permeability across apical to basolateral side in pig LLC-PK1 cells transfected with MDR1
# Format: ADME, cell-based, Sus scrofa
# Conditions: not given
row,efflux ratio,SMILES
1,3.6,COc1cc(-c2cc(F)cc(C(C)C)c2CC(=O)NS(=O)(=O)c2cnn(C3CC3)c2)ccn1
2,2.9,CC(C)c1cc(F)cc2c1CC(=O)NS(=O)(=O)c1cnn(c1)C(C)(C)COc1cc-2ccn1

# Tested on: BCRP
# Assay: Efflux ratio of permeability in MDCK-II-BCRP cells at 5 uM incubated for 2 hrs by LC-MS/MS analysis
# Format: ADME, cell-based, Canis lupus familiaris
# Conditions: dog
row,"efflux ratio at 2 h, 5 µM",SMILES
1,38,COc1cc(-c2cc(F)cc(C(C)C)c2CC(=O)NS(=O)(=O)c2cnn(C3CC3)c2)ccn1
2,6,CC(C)c1cc(F)cc2c1CC(=O)NS(=O)(=O)c1cnn(c1)C(C)(C)COc1cc-2ccn1

# Tested on: not listed separately
# Assay: Inhibition of NLRP3 inflammasome activation in LPS-stimulated human whole blood assessed as reduction in IL-1beta release preincubated for 3 hrs followed by nigericin addition and measured after 1 hrs by Alphalisa method
# Format: tissue-based
# Conditions: not given
row,IC50 [nM],SMILES
1,102,Cc1cc2c(c3c1-c1ccnc(c1)OCC(C)(C)n1cc(F)c(n1)S(=O)(=O)NC(=O)N3)CCC2
2,1600,COc1cc(-c2ccc3c(c2NC(=O)NS(=O)(=O)c2ccnc(C(C)C)c2)CCC3)ccn1
3,814,COc1cc(-c2ccc3c(c2NC(=O)NS(=O)(=O)c2cnn(C(C)C)n2)CCC3)ccn1
4,338,COc1cc(-c2ccc3c(c2NC(=O)NS(=O)(=O)c2cnn(C(C)C)c2)CCC3)ccn1
5,412,COc1cc(-c2ccc3c(c2NC(=O)NS(=O)(=O)c2ccn(C(C)C)n2)CCC3)ccn1
6,351,CC(C)c1cc(F)cc2c1CC(=O)NS(=O)(=O)c1cnn(c1)C(C)(C)COc1cc-2ccn1
7,5940,CC(C)n1ccc(S(=O)(=O)NC(=O)Nc2c(-c3ccnc(Oc4ccccc4)c3)ccc3c2CCC3)n1
8,1000,CC(C)n1ccc(S(=O)(=O)NC(=O)Nc2c(-c3ccnc(OC4CCOCC4)c3)ccc3c2CCC3)n1

# Tested on: not listed separately
# Assay: Metabolic stability in mouse hepatocytes assessed as intrinsic clearance measured per 10^6 cells at 100 uM incubated upto 60 mins by UPLC-MS/MS analysis
# Format: ADME, cell-based, Hepatocyte
# Conditions: read-out: CLH
row,hepatocyte CLint at 100 µM [µL/min/1e6 cells],SMILES
1,21,CC(C)c1cc(F)cc2c1CC(=O)NS(=O)(=O)c1cnn(c1)C(C)(C)COc1cc-2ccn1

# Tested on: not listed separately
# Assay: Clearance in male Sprague-Dawley rat at 1 mg/kg, iv measured after 24 hrs by LC-MS analysis
# Format: ADME, organism-based
# Conditions: in vivo
row,clearance [mL/min/kg],SMILES
1,11,COc1cc(-c2cc(F)cc(C(C)C)c2CC(=O)NS(=O)(=O)c2cnn(C3CC3)c2)ccn1
2,3.5,CC(C)c1cc(F)cc2c1CC(=O)NS(=O)(=O)c1cnn(c1)C(C)(C)COc1cc-2ccn1

# Tested on: not listed separately
# Assay: Metabolic stability in rat hepatocytes assessed as intrinsic clearance measured per 10^6 cells at 100 uM incubated upto 60 mins by UPLC-MS/MS analysis
# Format: ADME, cell-based, Hepatocyte
# Conditions: read-out: CLH
row,hepatocyte CLint at 100 µM [µL/min/1e6 cells],SMILES
1,< 8,COc1cc(-c2cc(F)cc(C(C)C)c2CC(=O)NS(=O)(=O)c2cnn(C3CC3)c2)ccn1
2,< 8,CC(C)c1cc(F)cc2c1CC(=O)NS(=O)(=O)c1cnn(c1)C(C)(C)COc1cc-2ccn1

# Tested on: not listed separately
# Assay: Protein binding in human plasma assessed as unbound fraction at 5 uM incubated for 4 hrs by UPLC-MS analysis
# Format: ADME, cell-free
# Conditions: not given
row,"fraction unbound at 4 h, 5 µM",SMILES
1,0.01,COc1cc(-c2cc(F)cc(C(C)C)c2CC(=O)NS(=O)(=O)c2cnn(C3CC3)c2)ccn1
2,0.047,CC(C)c1cc(F)cc2c1CC(=O)NS(=O)(=O)c1cnn(c1)C(C)(C)COc1cc-2ccn1

# Tested on: not listed separately
# Assay: Volume of distribution at steady state in male Sprague-Dawley rat at 1 mg/kg, iv measured after 24 hrs by LC-MS analysis
# Format: ADME, organism-based
# Conditions: in vivo, read-out: Vdss
row,Vd [L/kg],SMILES
1,13.3,COc1cc(-c2cc(F)cc(C(C)C)c2CC(=O)NS(=O)(=O)c2cnn(C3CC3)c2)ccn1
2,0.4,CC(C)c1cc(F)cc2c1CC(=O)NS(=O)(=O)c1cnn(c1)C(C)(C)COc1cc-2ccn1

# Tested on: not listed separately
# Assay: Inhibition of NLRP3 inflammasome activation mediated pyroptosis in LPS-stimulated human THP-1 cells preincubated for 3 hrs followed by nigericin addition and measured after 1 hrs by resazurin dye based assay
# Format: cell-based
# Conditions: not given
row,SMILES,IC50 [nM]
1,Cc1cc2c(c3c1-c1ccnc(c1)OCC(C)(C)n1cc(F)c(n1)S(=O)(=O)NC(=O)N3)CCC2,4
2,COc1cc(-c2cc(F)cc(C(C)C)c2CC(=O)NS(=O)(=O)c2cnn(C3CC3)c2)ccn1,533
3,COc1cc(-c2ccc3c(c2NC(=O)NS(=O)(=O)c2ccnc(C(C)C)c2)CCC3)ccn1,23
4,COc1cc(-c2ccc3c(c2NC(=O)NS(=O)(=O)c2cnn(C(C)C)n2)CCC3)ccn1,58
5,COc1cc(-c2ccc3c(c2NC(=O)NS(=O)(=O)c2cnn(C(C)C)c2)CCC3)ccn1,16
6,COc1cc(-c2ccc3c(c2NC(=O)NS(=O)(=O)c2ccn(C(C)C)n2)CCC3)ccn1,51
7,CC(C)c1cc(F)cc2c1CC(=O)NS(=O)(=O)c1cnn(c1)C(C)(C)COc1cc-2ccn1,76
8,CC(C)n1ccc(S(=O)(=O)NC(=O)Nc2c(-c3ccnc(Oc4ccccc4)c3)ccc3c2CCC3)n1,59
9,CC(C)n1ccc(S(=O)(=O)NC(=O)Nc2c(-c3ccnc(OC4CCOCC4)c3)ccc3c2CCC3)n1,62

# Tested on: not listed separately
# Assay: Metabolic stability in pooled mouse liver microsomes assessed as intrinsic clearance at 1 uM measured upto 45 mins in presence of NADPH by UPLC-MS/MS analysis
# Format: ADME, Microsome
# Conditions: read-out: CLH
row,microsomal CLint at 1 µM [µL/min/mg],SMILES
1,35,CC(C)c1cc(F)cc2c1CC(=O)NS(=O)(=O)c1cnn(c1)C(C)(C)COc1cc-2ccn1

# Tested on: not listed separately
# Assay: Kinetic solubility of compound
# Format: physicochemical
# Conditions: read-out: Kinetic_solubility
row,solubility kinetic [µg/mL],SMILES
1,16.5,CC(C)c1cc(F)cc2c1CC(=O)NS(=O)(=O)c1cnn(c1)C(C)(C)COc1cc-2ccn1

# Tested on: MDR1
# Assay: Permeability in MDCKII-MDR1 cells at 5 uM incubated for 2 hrs by LC-MS/MS analysis
# Format: ADME, cell-based, Canis lupus familiaris
# Conditions: dog, MDCK-MDR1, read-out: permeability
row,"Papp at 2 h, 5 µM [×10⁻⁶ cm/s]",SMILES
1,8.8,COc1cc(-c2cc(F)cc(C(C)C)c2CC(=O)NS(=O)(=O)c2cnn(C3CC3)c2)ccn1
2,10.4,CC(C)c1cc(F)cc2c1CC(=O)NS(=O)(=O)c1cnn(c1)C(C)(C)COc1cc-2ccn1

# Tested on: not listed separately
# Assay: Half-life in male Sprague-Dawley rat at 1 mg/kg, iv measured after 24 hrs by LC-MS analysis
# Format: ADME, organism-based
# Conditions: in vivo
row,half-life [h],SMILES
1,16.4,COc1cc(-c2cc(F)cc(C(C)C)c2CC(=O)NS(=O)(=O)c2cnn(C3CC3)c2)ccn1
2,1.5,CC(C)c1cc(F)cc2c1CC(=O)NS(=O)(=O)c1cnn(c1)C(C)(C)COc1cc-2ccn1

# Tested on: not listed separately
# Assay: Metabolic stability in human hepatocytes assessed as intrinsic clearance measured per 10^6 cells at 100 uM incubated upto 60 mins by UPLC-MS/MS analysis
# Format: ADME, cell-based, Hepatocyte
# Conditions: read-out: CLH
row,hepatocyte CLint at 100 µM [µL/min/1e6 cells],SMILES
1,< 8,COc1cc(-c2cc(F)cc(C(C)C)c2CC(=O)NS(=O)(=O)c2cnn(C3CC3)c2)ccn1
2,< 8,CC(C)c1cc(F)cc2c1CC(=O)NS(=O)(=O)c1cnn(c1)C(C)(C)COc1cc-2ccn1

# Tested on: not listed separately
# Assay: Lipophilicity, logD of compound at pH 7.4
# Format: physicochemical
# Conditions: buffer
row,logD,SMILES
1,0.9,COc1cc(-c2cc(F)cc(C(C)C)c2CC(=O)NS(=O)(=O)c2cnn(C3CC3)c2)ccn1
2,0.09,COc1cc(-c2ccc3c(c2NC(=O)NS(=O)(=O)c2ccn(C(C)C)n2)CCC3)ccn1
3,1.5,CC(C)c1cc(F)cc2c1CC(=O)NS(=O)(=O)c1cnn(c1)C(C)(C)COc1cc-2ccn1
4,1.2,CC(C)n1ccc(S(=O)(=O)NC(=O)Nc2c(-c3ccnc(Oc4ccccc4)c3)ccc3c2CCC3)n1
5,0.35,CC(C)n1ccc(S(=O)(=O)NC(=O)Nc2c(-c3ccnc(OC4CCOCC4)c3)ccc3c2CCC3)n1
